# System: Smad binding element (SBE) luciferase reporter activity in TGFβ1 stimulated NIH-3T3 cells
# Test: ALK-5 gene reporter assay: Smad binding element (SBE) luciferase reporter in TGFβ1 stimulated NIH-3T3 cells
# Details: Mus musculus, NIH3T3
smiles,measurement,value
"CCc1cnn(-c2cccc(C)n2)c1-c1cc2cnccc2s1 [Example 4, 2-[4-ethyl-1-(6-methylpyridin-2-yl)-1H-pyrazol-5-yl]thieno[3,2-c]pyridine]",IC50,21.5 nM
